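Growth conditions: 96-well plates. Treatment: test compound, 48 hours, 5 concentrations. Analysis: linear interpolation between bracketing concentrations; unreached endpoints set to highest concentration. GI50 is the concentration that inhibits growth by half. The concentration for full growth arrest is given as TGI.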
What was measured:
Assay in all cases: NCI-60 cell line screen, 48 h
SN12C renal = tested on: SN12C renal
SNB-19 CNS = tested on: SNB-19 CNS
SNB-75 CNS = tested on: SNB-75 CNS
EKVX NSCLC = tested on: EKVX NSCLC
UACC-62 melanoma = tested on: UACC-62 melanoma
NCI-H23 lung = tested on: NCI-H23 lung
UO-31 renal = tested on: UO-31 renal
ACHN renal = tested on: ACHN renal
SK-OV-3 ovarian = tested on: SK-OV-3 ovarian
UACC-257 melanoma = tested on: UACC-257 melanoma
A498 renal = tested on: A498 renal
HOP-62 NSCLC = tested on: HOP-62 NSCLC
SK-MEL-2 melanoma = tested on: SK-MEL-2 melanoma
NCI-H522 lung = tested on: NCI-H522 lung
K-562 leukemia = tested on: K-562 leukemia
HCT-15 colon = tested on: HCT-15 colon
M14 melanoma = tested on: M14 melanoma
NCI/ADR-RES ovarian = tested on: NCI/ADR-RES ovarian
RPMI-8226 leukemia = tested on: RPMI-8226 leukemia
HS 578T breast = tested on: HS 578T breast
A549 NSCLC = tested on: A549 NSCLC
OVCAR-3 ovarian = tested on: OVCAR-3 ovarian
SK-MEL-28 melanoma = tested on: SK-MEL-28 melanoma
BT-549 breast = tested on: BT-549 breast
CAKI-1 renal = tested on: CAKI-1 renal
SR leukemia = tested on: SR leukemia
SF-295 CNS = tested on: SF-295 CNS
SF-268 CNS = tested on: SF-268 CNS
HCT-116 colon = tested on: HCT-116 colon
PC-3 prostate = tested on: PC-3 prostate
HOP-92 NSCLC = tested on: HOP-92 NSCLC
OVCAR-5 ovarian = tested on: OVCAR-5 ovarian
T-47D breast = tested on: T-47D breast
HCC-2998 colon = tested on: HCC-2998 colon
SF-539 CNS = tested on: SF-539 CNS
HL-60(TB) leukemia = tested on: HL-60(TB) leukemia
MALME-3M melanoma = tested on: MALME-3M melanoma
MDA-MB-435 = tested on: MDA-MB-435
OVCAR-4 ovarian = tested on: OVCAR-4 ovarian
DU-145 prostate = tested on: DU-145 prostate
MOLT-4 leukemia = tested on: MOLT-4 leukemia
OVCAR-8 ovarian = tested on: OVCAR-8 ovarian
SW-620 colon = tested on: SW-620 colon
MCF7 breast = tested on: MCF7 breast
RXF 393 renal = tested on: RXF 393 renal
IGROV1 ovarian = tested on: IGROV1 ovarian
MDA-MB-231 breast = tested on: MDA-MB-231 breast
KM12 colon = tested on: KM12 colon
NCI-H226 lung = tested on: NCI-H226 lung
MDA-MB-468 breast = tested on: MDA-MB-468 breast
U251 CNS = tested on: U251 CNS
TK-10 renal = tested on: TK-10 renal
CCRF-CEM leukemia = tested on: CCRF-CEM leukemia
SK-MEL-5 melanoma = tested on: SK-MEL-5 melanoma
LOX IMVI melanoma = tested on: LOX IMVI melanoma
NCI-H460 lung = tested on: NCI-H460 lung

Question: For `CCN1CCN(Cc2ccc(C(=O)Nc3cccc(Nc4ccc5c(OC)cccc5n4)c3)cc2C(F)(F)F)CC1`, which GI50 (SN12C renal) is on record?
Answer: 3.62 µM

Question: And the TGI (SN12C renal)?
Answer: 14.8 µM

Question: What about the GI50 (SNB-19 CNS) of the same molecule?
Answer: 1.65 µM

Question: What about the TGI (SNB-19 CNS) of the same molecule?
Answer: 3.62 µM

Question: What about the GI50 (SNB-75 CNS) of the same molecule?
Answer: 1.2 µM

Question: And the TGI (SNB-75 CNS)?
Answer: 8.39 µM

Question: And the GI50 (EKVX NSCLC)?
Answer: 4.06 µM

Question: And the TGI (EKVX NSCLC)?
Answer: 15.3 µM

Question: And the GI50 (UACC-62 melanoma)?
Answer: 1.53 µM

Question: And the TGI (UACC-62 melanoma)?
Answer: 2.83 µM

Question: And the GI50 (NCI-H23 lung)?
Answer: 2.37 µM

Question: And the TGI (NCI-H23 lung)?
Answer: 7.03 µM

Question: And the GI50 (UO-31 renal)?
Answer: 2.33 µM

Question: And the TGI (UO-31 renal)?
Answer: 9.27 µM

Question: And the GI50 (ACHN renal)?
Answer: 1.85 µM

Question: And the TGI (ACHN renal)?
Answer: 4.32 µM

Question: What about the GI50 (SK-OV-3 ovarian) of the same molecule?
Answer: 12.6 µM

Question: And the TGI (SK-OV-3 ovarian)?
Answer: 27.2 µM

Question: What about the GI50 (UACC-257 melanoma) of the same molecule?
Answer: 1.51 µM

Question: And the TGI (UACC-257 melanoma)?
Answer: 2.85 µM

Question: And the GI50 (A498 renal)?
Answer: 11.8 µM

Question: And the TGI (A498 renal)?
Answer: 24.9 µM

Question: And the GI50 (HOP-62 NSCLC)?
Answer: 3.67 µM

Question: And the TGI (HOP-62 NSCLC)?
Answer: 17.6 µM

Question: What about the GI50 (SK-MEL-2 melanoma) of the same molecule?
Answer: 10.7 µM

Question: What about the TGI (SK-MEL-2 melanoma) of the same molecule?
Answer: 23.8 µM

Question: What about the GI50 (NCI-H522 lung) of the same molecule?
Answer: 1.7 µM

Question: And the TGI (NCI-H522 lung)?
Answer: 3.3 µM

Question: What about the GI50 (K-562 leukemia) of the same molecule?
Answer: 2.11 µM

Question: And the TGI (K-562 leukemia)?
Answer: 86.8 µM

Question: What about the GI50 (HCT-15 colon) of the same molecule?
Answer: 1.58 µM

Question: And the TGI (HCT-15 colon)?
Answer: 3.29 µM

Question: And the GI50 (M14 melanoma)?
Answer: 1.47 µM

Question: What about the TGI (M14 melanoma) of the same molecule?
Answer: 2.72 µM

Question: And the GI50 (NCI/ADR-RES ovarian)?
Answer: 2.28 µM

Question: And the TGI (NCI/ADR-RES ovarian)?
Answer: 9.03 µM

Question: And the GI50 (RPMI-8226 leukemia)?
Answer: 2.24 µM

Question: What about the TGI (RPMI-8226 leukemia) of the same molecule?
Answer: 6.67 µM

Question: And the GI50 (HS 578T breast)?
Answer: 1.96 µM

Question: And the TGI (HS 578T breast)?
Answer: 6.98 µM

Question: And the GI50 (A549 NSCLC)?
Answer: 2.5 µM

Question: What about the TGI (A549 NSCLC) of the same molecule?
Answer: 11.4 µM

Question: What about the GI50 (OVCAR-3 ovarian) of the same molecule?
Answer: 1.8 µM

Question: And the TGI (OVCAR-3 ovarian)?
Answer: 4.58 µM

Question: What about the GI50 (SK-MEL-28 melanoma) of the same molecule?
Answer: 1.56 µM

Question: And the TGI (SK-MEL-28 melanoma)?
Answer: 2.87 µM

Question: What about the GI50 (BT-549 breast) of the same molecule?
Answer: 5.35 µM

Question: And the TGI (BT-549 breast)?
Answer: 17.4 µM

Question: What about the GI50 (CAKI-1 renal) of the same molecule?
Answer: 1.46 µM

Question: And the TGI (CAKI-1 renal)?
Answer: 3.19 µM

Question: And the GI50 (SR leukemia)?
Answer: 1.87 µM

Question: What about the TGI (SR leukemia) of the same molecule?
Answer: 4.67 µM

Question: What about the GI50 (SF-295 CNS) of the same molecule?
Answer: 1.52 µM

Question: And the TGI (SF-295 CNS)?
Answer: 2.97 µM

Question: What about the GI50 (SF-268 CNS) of the same molecule?
Answer: 2.17 µM

Question: What about the TGI (SF-268 CNS) of the same molecule?
Answer: 9.91 µM

Question: What about the GI50 (HCT-116 colon) of the same molecule?
Answer: 1.45 µM

Question: And the TGI (HCT-116 colon)?
Answer: 2.64 µM

Question: And the GI50 (PC-3 prostate)?
Answer: 2.14 µM

Question: And the TGI (PC-3 prostate)?
Answer: 6.26 µM

Question: What about the GI50 (HOP-92 NSCLC) of the same molecule?
Answer: 1.58 µM

Question: And the TGI (HOP-92 NSCLC)?
Answer: 5.27 µM

Question: And the GI50 (OVCAR-5 ovarian)?
Answer: 3.28 µM

Question: What about the TGI (OVCAR-5 ovarian) of the same molecule?
Answer: 12.7 µM

Question: What about the GI50 (T-47D breast) of the same molecule?
Answer: 2.11 µM

Question: What about the TGI (T-47D breast) of the same molecule?
Answer: 8.14 µM

Question: And the GI50 (HCC-2998 colon)?
Answer: 1.59 µM

Question: What about the TGI (HCC-2998 colon) of the same molecule?
Answer: 2.89 µM

Question: And the GI50 (SF-539 CNS)?
Answer: 1.37 µM

Question: And the TGI (SF-539 CNS)?
Answer: 2.54 µM

Question: And the GI50 (HL-60(TB) leukemia)?
Answer: 1.57 µM

Question: And the TGI (HL-60(TB) leukemia)?
Answer: 4.84 µM

Question: And the GI50 (MALME-3M melanoma)?
Answer: 1.44 µM

Question: What about the TGI (MALME-3M melanoma) of the same molecule?
Answer: 2.63 µM

Question: And the GI50 (MDA-MB-435)?
Answer: 1.36 µM

Question: And the TGI (MDA-MB-435)?
Answer: 2.82 µM

Question: And the GI50 (OVCAR-4 ovarian)?
Answer: 2.89 µM

Question: And the TGI (OVCAR-4 ovarian)?
Answer: 13 µM

Question: And the GI50 (DU-145 prostate)?
Answer: 2.55 µM

Question: And the TGI (DU-145 prostate)?
Answer: 9.25 µM

Question: And the GI50 (MOLT-4 leukemia)?
Answer: 1.23 µM

Question: And the TGI (MOLT-4 leukemia)?
Answer: 5.05 µM

Question: What about the GI50 (OVCAR-8 ovarian) of the same molecule?
Answer: 6.78 µM

Question: What about the TGI (OVCAR-8 ovarian) of the same molecule?
Answer: 18.4 µM

Question: What about the GI50 (SW-620 colon) of the same molecule?
Answer: 1.45 µM

Question: And the TGI (SW-620 colon)?
Answer: 2.73 µM

Question: What about the GI50 (MCF7 breast) of the same molecule?
Answer: 1.5 µM

Question: And the TGI (MCF7 breast)?
Answer: 3.5 µM

Question: And the GI50 (RXF 393 renal)?
Answer: 1.63 µM

Question: What about the TGI (RXF 393 renal) of the same molecule?
Answer: 5 µM

Question: And the GI50 (IGROV1 ovarian)?
Answer: 3.09 µM

Question: What about the TGI (IGROV1 ovarian) of the same molecule?
Answer: 11.2 µM

Question: And the GI50 (MDA-MB-231 breast)?
Answer: 1.54 µM

Question: And the TGI (MDA-MB-231 breast)?
Answer: 3.05 µM

Question: What about the GI50 (KM12 colon) of the same molecule?
Answer: 2.2 µM

Question: And the TGI (KM12 colon)?
Answer: 5.62 µM

Question: What about the GI50 (NCI-H226 lung) of the same molecule?
Answer: 5.52 µM

Question: And the TGI (NCI-H226 lung)?
Answer: 18.3 µM

Question: What about the GI50 (MDA-MB-468 breast) of the same molecule?
Answer: 1.6 µM

Question: And the TGI (MDA-MB-468 breast)?
Answer: 4.53 µM

Question: And the GI50 (U251 CNS)?
Answer: 1.69 µM

Question: What about the TGI (U251 CNS) of the same molecule?
Answer: 3.47 µM

Question: What about the GI50 (TK-10 renal) of the same molecule?
Answer: 8.67 µM

Question: And the TGI (TK-10 renal)?
Answer: 22.1 µM

Question: What about the GI50 (CCRF-CEM leukemia) of the same molecule?
Answer: 1.97 µM

Question: And the TGI (CCRF-CEM leukemia)?
Answer: 5.38 µM

Question: What about the GI50 (SK-MEL-5 melanoma) of the same molecule?
Answer: 1.45 µM

Question: And the TGI (SK-MEL-5 melanoma)?
Answer: 2.78 µM

Question: And the GI50 (LOX IMVI melanoma)?
Answer: 1.45 µM

Question: What about the TGI (LOX IMVI melanoma) of the same molecule?
Answer: 2.65 µM

Question: And the GI50 (NCI-H460 lung)?
Answer: 1.47 µM

Question: What about the TGI (NCI-H460 lung) of the same molecule?
Answer: 2.8 µM

From PubChem BioAssay (NCI)
